# Source: patent US11498899B2, “Nitrone herbicides” (FMC Corporation, priority 2016, dated 2022)
# How the values were obtained:
# [1] = tested on: barnyardgrass (Echinochloa crus-galli); test: Test A preemergence, visual injury rating 0-100 (0 no effect, 100 complete control); type: in vivo; conditions: for Barnyardgrass plant response rating (0 to 100 scale): 125 g ai/ha; for Barnyardgrass plant response rating: 500 g ai/ha, 0 to 100 scale
# corn (Zea mays) = test: Test A postemergence, visual injury rating 0-100; type: in vivo; conditions: 0 to 100 scale
# kochia (Kochia scoparia) [2] = test: Test A postemergence, visual injury rating 0-100; type: in vivo; conditions: 0 to 100 scale
# [3] = tested on: galium (catchweed bedstraw, Galium aparine); test: Test A postemergence, visual injury rating 0-100; type: in vivo; conditions: 0 to 100 scale
# [4] = tested on: ryegrass, Italian (Italian ryegrass, Lolium multiflorum); test: Test A postemergence, visual injury rating 0-100; type: in vivo; conditions: 0 to 100 scale
# [5] = tested on: blackgrass (Alopecurus myosuroides); test: Test A postemergence, visual injury rating 0-100; type: in vivo; conditions: 0 to 100 scale
# [6] = tested on: barnyardgrass (Echinochloa crus-galli); test: Test A postemergence, visual injury rating 0-100; type: in vivo; conditions: 0 to 100 scale
# [7] = tested on: wheat (Triticum aestivum); test: Test A postemergence, visual injury rating 0-100; type: in vivo; conditions: 0 to 100 scale
# [8] = tested on: pigweed (Amaranthus retroflexus); test: Test A postemergence, visual injury rating 0-100; type: in vivo; conditions: 0 to 100 scale
# [9] = tested on: foxtail, green (green foxtail, Setaria viridis); test: Test A postemergence, visual injury rating 0-100; type: in vivo; conditions: 0 to 100 scale
# [10] = tested on: ragweed (common ragweed, Ambrosia elatior); test: Test A postemergence, visual injury rating 0-100; type: in vivo; conditions: 0 to 100 scale
# rice (Oryza sativa) = test: Test B flooded paddy test, visual rating 0-100 (0 no effect, 100 complete control); conditions: Flood, 250 g ai/ha, applied to paddy water, rated after 13 to 15 days
# [11] = tested on: barnyardgrass (Echinochloa crus-galli); test: Test B flooded paddy test, visual rating 0-100; conditions: Flood, 250 g ai/ha, applied to paddy water, rated after 13 to 15 days
# [12] = tested on: ducksalad (Heteranthera limosa); test: Test B flooded paddy test, visual rating 0-100; conditions: Flood, 250 g ai/ha, applied to paddy water, rated after 13 to 15 days
# kochia (Kochia scoparia) [13] = test: Test A preemergence, visual injury rating 0-100; type: in vivo; conditions: for Kochia plant response rating: 0 to 100 scale
# [14] = tested on: ryegrass, Italian (Italian ryegrass, Lolium multiflorum); test: Test A preemergence, visual injury rating 0-100; type: in vivo; conditions: for Ryegrass, Italian plant response rating: 0 to 100 scale
# [15] = tested on: pigweed (Amaranthus retroflexus); test: Test A preemergence, visual injury rating 0-100; type: in vivo; conditions: for Pigweed plant response rating: 0 to 100 scale
# [16] = tested on: foxtail, green (green foxtail, Setaria viridis); test: Test A preemergence, visual injury rating 0-100; type: in vivo; conditions: for Foxtail, Green plant response rating: 0 to 100 scale
# [17] = tested on: ragweed (common ragweed, Ambrosia elatior); test: Test A preemergence, visual injury rating 0-100; type: in vivo; conditions: for Ragweed plant response rating: 0 to 100 scale
Structure (SMILES),Barnyardgrass plant response rating (0 to 100 scale) [1],Barnyardgrass plant response rating [1],Corn plant response rating (corn (Zea mays); 125 g ai/ha),Corn plant response rating (corn (Zea mays); 500 g ai/ha),Kochia plant response rating (kochia (Kochia scoparia) [2]; 125 g ai/ha),Kochia plant response rating (kochia (Kochia scoparia) [2]; 500 g ai/ha),"Ryegrass, Italian plant response rating ([4]; 125 g ai/ha)","Ryegrass, Italian plant response rating ([4]; 500 g ai/ha)",Blackgrass plant response rating ([5]; 125 g ai/ha),Blackgrass plant response rating ([5]; 500 g ai/ha),Barnyardgrass plant response rating ([6]; 125 g ai/ha),Barnyardgrass plant response rating ([6]; 500 g ai/ha),Wheat plant response rating ([7]; 125 g ai/ha),Wheat plant response rating ([7]; 500 g ai/ha),Pigweed plant response rating ([8]; 125 g ai/ha),Pigweed plant response rating ([8]; 500 g ai/ha),"Foxtail, Green plant response rating ([9]; 125 g ai/ha)","Foxtail, Green plant response rating ([9]; 500 g ai/ha)",Ragweed plant response rating ([10]; 125 g ai/ha),Ragweed plant response rating ([10]; 500 g ai/ha),further results
CC1=[N+]([O-])C(C(=O)Nc2cccc(F)c2F)C(c2ccccc2)C1 (racemic) [Compound 16],100,100,0,0,0,20,0,0,0,0,80,90,0,0,0,20,10,80,0,20,"Galium plant response rating ([3]; 125 g ai/ha): 0; Galium plant response rating ([3]; 500 g ai/ha): 30; Rice plant response rating (0 to 100 scale) (rice (Oryza sativa)): 0; Barnyardgrass plant response rating (0 to 100 scale) [11]: 85; Ducksalad plant response rating (0 to 100 scale) [12]: 100; Kochia plant response rating (0 to 100 scale) (kochia (Kochia scoparia) [13]; 125 g ai/ha): 0; Kochia plant response rating (kochia (Kochia scoparia) [13]; 500 g ai/ha): 30; Ryegrass, Italian plant response rating (0 to 100 scale) ([14]; 125 g ai/ha): 0; Ryegrass, Italian plant response rating ([14]; 500 g ai/ha): 0; Pigweed plant response rating (0 to 100 scale) ([15]; 125 g ai/ha): 0; Pigweed plant response rating ([15]; 500 g ai/ha): 70; Foxtail, Green plant response rating (0 to 100 scale) ([16]; 125 g ai/ha): 100; Foxtail, Green plant response rating ([16]; 500 g ai/ha): 100; Ragweed plant response rating (0 to 100 scale) ([17]; 125 g ai/ha): 0; Ragweed plant response rating ([17]; 500 g ai/ha): 20"
CC1=[N+]([O-])C(C(=O)Nc2ccccc2)C(c2ccc(F)c(F)c2)C1 (racemic) [Compound 17],0,20,0,20,0,0,0,0,0,0,0,0,0,0,0,0,20,20,0,0,"Galium plant response rating ([3]; 125 g ai/ha): 0; Galium plant response rating ([3]; 500 g ai/ha): 0; Rice plant response rating (0 to 100 scale) (rice (Oryza sativa)): 0; Barnyardgrass plant response rating (0 to 100 scale) [11]: 0; Ducksalad plant response rating (0 to 100 scale) [12]: 40; Kochia plant response rating (0 to 100 scale) (kochia (Kochia scoparia) [13]; 125 g ai/ha): 0; Kochia plant response rating (kochia (Kochia scoparia) [13]; 500 g ai/ha): 0; Ryegrass, Italian plant response rating (0 to 100 scale) ([14]; 125 g ai/ha): 0; Ryegrass, Italian plant response rating ([14]; 500 g ai/ha): 0; Pigweed plant response rating (0 to 100 scale) ([15]; 125 g ai/ha): 0; Pigweed plant response rating ([15]; 500 g ai/ha): 0; Foxtail, Green plant response rating (0 to 100 scale) ([16]; 125 g ai/ha): 0; Foxtail, Green plant response rating ([16]; 500 g ai/ha): 50; Ragweed plant response rating (0 to 100 scale) ([17]; 125 g ai/ha): 0; Ragweed plant response rating ([17]; 500 g ai/ha): 0"
CC1=[N+]([O-])C(C(=O)Nc2cccc(F)c2F)C(c2cccc(Br)c2)C1 (racemic) [Compound 19],70,90,30,80,0,30,0,40,20,60,10,90,0,70,0,20,30,60,0,20,"Galium plant response rating ([3]; 125 g ai/ha): 0; Galium plant response rating ([3]; 500 g ai/ha): 30; Rice plant response rating (0 to 100 scale) (rice (Oryza sativa)): 15; Barnyardgrass plant response rating (0 to 100 scale) [11]: 85; Ducksalad plant response rating (0 to 100 scale) [12]: 95; Kochia plant response rating (0 to 100 scale) (kochia (Kochia scoparia) [13]; 125 g ai/ha): 0; Kochia plant response rating (kochia (Kochia scoparia) [13]; 500 g ai/ha): 60; Ryegrass, Italian plant response rating (0 to 100 scale) ([14]; 125 g ai/ha): 0; Ryegrass, Italian plant response rating ([14]; 500 g ai/ha): 40; Pigweed plant response rating (0 to 100 scale) ([15]; 125 g ai/ha): 20; Pigweed plant response rating ([15]; 500 g ai/ha): 60; Foxtail, Green plant response rating (0 to 100 scale) ([16]; 125 g ai/ha): 50; Foxtail, Green plant response rating ([16]; 500 g ai/ha): 90; Ragweed plant response rating (0 to 100 scale) ([17]; 125 g ai/ha): 20; Ragweed plant response rating ([17]; 500 g ai/ha): 50"
"CC1=[N+]([O-])[C@H](C(=O)Nc2cccc(F)c2F)[C@@H](c2ccc3c(c2)OC(F)(F)O3)C1 (relative stereo) [Compound 25, rel-(2S,3R)-3-(2,2-Difluoro-1,3-benzodioxol-5-yl)-N-(2,3-difluorophenyl)-3,4-dihydro-5-methyl-2H-pyrrole-2-carboxamide 1-oxide]",90,90,60,80,60,60,40,50,20,40,70,90,70,90,60,70,40,90,40,50,"Rice plant response rating (0 to 100 scale) (rice (Oryza sativa)): 0; Barnyardgrass plant response rating (0 to 100 scale) [11]: 75; Ducksalad plant response rating (0 to 100 scale) [12]: 90; Kochia plant response rating (0 to 100 scale) (kochia (Kochia scoparia) [13]; 125 g ai/ha): 50; Kochia plant response rating (kochia (Kochia scoparia) [13]; 500 g ai/ha): 80; Ryegrass, Italian plant response rating (0 to 100 scale) ([14]; 125 g ai/ha): 80; Ryegrass, Italian plant response rating ([14]; 500 g ai/ha): 50; Pigweed plant response rating (0 to 100 scale) ([15]; 125 g ai/ha): 80; Pigweed plant response rating ([15]; 500 g ai/ha): 90; Foxtail, Green plant response rating (0 to 100 scale) ([16]; 125 g ai/ha): 90; Foxtail, Green plant response rating ([16]; 500 g ai/ha): 90; Ragweed plant response rating (0 to 100 scale) ([17]; 125 g ai/ha): 50; Ragweed plant response rating ([17]; 500 g ai/ha): 100"
"CC1=[N+]([O-])[C@H](C(=O)Nc2ccc(F)nc2F)[C@@H](c2ccc(C(F)(F)F)cc2)C1 (relative stereo) [Compound 37, rel-(2S,3R)—N-(2,6-Difluoro-3-pyridinyl)-3,4-dihydro-5-methyl-3-[4-(trifluoromethyl)phenyl]-2H-pyrrole-2-carboxamide 1-oxide]",90,100,20,50,10,70,0,40,20,90,40,70,10,60,0,70,60,90,0,60,"Rice plant response rating (0 to 100 scale) (rice (Oryza sativa)): 0; Barnyardgrass plant response rating (0 to 100 scale) [11]: 45; Ducksalad plant response rating (0 to 100 scale) [12]: 100; Kochia plant response rating (0 to 100 scale) (kochia (Kochia scoparia) [13]; 125 g ai/ha): 70; Kochia plant response rating (0 to 100 scale) (kochia (Kochia scoparia) [13]; 500 g ai/ha): 90; Ryegrass, Italian plant response rating (0 to 100 scale) ([14]; 125 g ai/ha): 0; Ryegrass, Italian plant response rating (0 to 100 scale) ([14]; 500 g ai/ha): 0; Pigweed plant response rating (0 to 100 scale) ([15]; 125 g ai/ha): 80; Pigweed plant response rating (0 to 100 scale) ([15]; 500 g ai/ha): 100; Foxtail, Green plant response rating (0 to 100 scale) ([16]; 125 g ai/ha): 90; Foxtail, Green plant response rating (0 to 100 scale) ([16]; 500 g ai/ha): 100; Ragweed plant response rating (0 to 100 scale) ([17]; 125 g ai/ha): 90; Ragweed plant response rating (0 to 100 scale) ([17]; 500 g ai/ha): 100"
